Laboratory results taken from patent US8637484B2, “Modulation of growth hormone receptor expression and insulin-like growth factor expression” (Antisense Therapeutic Limited, priority 2003, dated 2014).
Marks after values point to notes of the source that are not given here. In the oligonucleotide strings, read from the 5' end, every base follows the letter of its sugar. An asterisk marks phosphorothioate; unmarked linkages are phosphodiester. Other units and linkages are bracketed, terminal groups are in braces. A string of capitals states the bases alone. e = 2'-O-(2-methoxyethyl) (MOE); [5mC] = 5-methylcytosine; d = 2'-deoxy (DNA)

Columns and labels:
[1] = test system: growth hormone receptor mRNA; experiment: Growth hormone receptor mRNA levels in liver, two-week mouse study; assay type: in vivo
Experimental: (§1) A two-week study was done in similar fashion to the one-week study in Example 18, this time using ISIS 227446 at doses of 3, 5, 10, 20 and 30 mg/kg. The mismatch control was given at the same doses. Mice were treated with antisense compound or saline every other day for 14 days.
Growth hormone receptor mRNA levels in liver tissue samples from treated and untreated mice in this two-week study were assayed. The growth hormone receptor antisense inhibitor ISIS 227446 reduced growth hormone receptor mRNA levels in liver after the two-week study by 50% at the 20 mg/kg dose relative to saline control (p<0.001). The 30 mg/kg dose of ISIS 227446 yielded a 53% decrease in growth hormone receptor mRNA (p<0.0001). The mismatch control oligonucleotide ISIS 261303 (SEQ ID NO: 267), at 30 mg/kg, reduced growth hormone receptor mRNA levels by approximately 3%.

[2] = test system: serum IGF-I; experiment: Serum IGF-I, additional 1 week study in mice; assay type: in vivo, mouse; settings: 50 mg/kg once every 2 days, day 7
Experimental: (§2) Male Balb/C(a) mice were prepared and grouped for analysis as in Example 18 above.
Animals (n=10/group) were designated to the following treatment groups:
(§3) Animals were treated and serum IGF-I levels were measured as in Example 18 above. Briefly, for the one-week study, mice were given a subcutaneous dose of saline every second day, and mismatch control or antisense with administration on days 0, 2, 4, 6. On day 7, the animals were anaesthetized with pentobarbital and non-fasting blood samples collected exactly 5 minutes later from the retrobulbar plexus through heparinized capillary tubes under light ether anesthesia. Serum IGF-I measurement was done by radioimmunoassay at day 7.

[3] = test system: blood vessel profiles (BVPs) in the inner retina; experiment: Oxygen-induced retinopathy (ROP) in mice, blood vessel profiles in the inner retina; assay type: in vivo, mouse
Experimental: Oxygen-induced retinopathy (also called retinopathy of prematurity or ROP) in laboratory animals is a widely used model for the study of retinal microvascular complications. Wilkinson-Berka et al., 2003, Invest. Opthalmol. V is Sci. 44, 974; Morayski, C. et al., 2000, Hypertension, 36,1099-1104.
To produce ROP, seven-day-old mice were placed in an infant incubator with their nursing mother in 75% oxygen from postnatal day 7 to day 12 as described in the literature. Smith et al., 1994, Invest Ophthalmol V is Sci 35, 101-111; Robinson et al., Proc Natl Acad Sci USA., 1996, May 14; 93, 4851-6. On postnatal day 12, the animals were returned to room air. Animals were sacrificed on postnatal day 17 when maximal neovascularization is observed. Sham-treated animals are handled similarly but are maintained in room air at all times.
Mice were dosed with antisense oligonucleotide in saline (total volume […]) at postnatal days 12, 13, 14, 15, and 16 or days 7, 8, 9, 11, 13, 15 and 17. Oligonucleotide was administered intraperitoneally at concentrations of 5, 10, 20 and 30 mg/kg. The mismatch control ISIS 261303 is also given.
Blood vessel profiles (BVPs) in the inner retina are quantitated in eyes from 36 experimental groups. Each group contains 8 retina from 8 different mice. Tables 7, 8 and 9 indicate 1) from which groups eyes have been collected to date for sectioning and 2) how many animals have had BVPs quantitated to date in each experimental group.
“Early intervention” (“Early I” in Tables 8-10) is used to describe mice pups that have been administered agents at postnatal days 7, 8, 9, 11, 13, 15 and 17 (7 doses). “Late intervention” (“Late I” in Tables 7-10) is used to describe mice pups administered agents at postnatal days 12, 13, 14, 15 and 16 (5 doses). All treatments were by intraperitoneal injection. Counting of blood vessel profiles (BVPs) in the inner retina is performed in a masked manner by investigators blinded to the experimental groups.

[4] = test system: growth hormone receptor mRNA; experiment: Growth hormone receptor mRNA levels in liver, additional 1 week study; assay type: in vivo, mouse; settings: one-week study
Experimental: as §2, §3
Growth hormone receptor mRNA levels in liver tissue samples from treated and untreated mice in this one-week study were assayed. The growth hormone receptor antisense inhibitor ISIS 227446 reduced growth hormone receptor mRNA levels in liver after the one-week study by 72% at the 50 mg/kg dose, relative to saline control (p<0.0001). The 30 mg/kg dose of ISIS 227446 yielded a 50% decrease in growth hormone receptor mRNA (p<0.0001). The unrelated control oligonucleotide ISIS 260120, at 50 mg/kg, reduced growth hormone receptor mRNA levels by approximately 15% (p>0.05).

[5] = test system: serum IGF-I; experiment: Serum IGF-I, two-week mouse study; assay type: in vivo; settings: for % decrease relative to 3 mg/kg ISIS 227446: day 14
Experimental: as §1
P-values were determined by t-test.

## acaaagatccatacctgaga (eA*e[5mC]*eA*eA*eA*dG*dA*dT*d[5mC]*d[5mC]*dA*dT*dA*d[5mC]*d[5mC]*eT*eG*eA*eG*eA; antisense) [ISIS 227446]
[1]; 20 mg/kg
  reduction of growth hormone receptor mRNA levels in liver relative to saline control: 50%
[1]; 30 mg/kg
  decrease in growth hormone receptor mRNA in liver: 53%
[2]
  reduction of serum IGF-I relative to saline control: 33%
  reduction of serum IGF-I relative to the unrelated control: 20%
[3]; ROP + 5 mg/kg ip, Early I
  Average # BVPs: 28.25
[3]; ROP + 5 mg/kg ip, Late I
  Average # BVPs: 25.19
[3]; ROP + 10 mg/kg ip, Early I
  Average # BVPs: 23.18
[3]; ROP + 30 mg/kg ip, Late I
  Average # BVPs: 24.24
[3]; Sham + 20 mg/kg ip, Early I (postnatal days 7, 8, 9, 11, 13, 15, 17)
  Average # BVPs: 9.97*
[3]; Sham + 30 mg/kg ip, Early I
  Average # BVPs: 10.94*
[3]; Sham + 30 mg/kg ip, Late I (postnatal days 12-16)
  Average # BVPs: 11.25*
[3]; early intervention
  effect on blood vessel profiles in sham-treated (no retinopathy) mice: no effect
[4]; 30 mg/kg
  decrease in growth hormone receptor mRNA in liver: 50%
[4]; 50 mg/kg
  reduction of growth hormone receptor mRNA levels in liver relative to saline control: 72%
[5]; 3 mg/kg every other day for 14 days
  Day 14 serum IGF-I: 214 ng/mL
[5]; 3 mg/kg, 14 days, equivalent to saline control (separate experiment)
  effect on serum IGF-I levels: no effect
[5]; 3 mg/kg
  % decrease relative to 3 mg/kg ISIS 227446: 0%
[5]; 5 mg/kg every other day for 14 days
  Day 14 serum IGF-I: 194 ng/mL
[5]; 5 mg/kg
  % decrease relative to 3 mg/kg ISIS 227446: 9%
[5]; 10 mg/kg every other day for 14 days
  Day 14 serum IGF-I: 130 ng/mL
[5]; 10 mg/kg
  % decrease relative to 3 mg/kg ISIS 227446: 39%
[5]; 20 mg/kg every other day for 14 days
  Day 14 serum IGF-I: 122 ng/mL
[5]; 20 mg/kg
  % decrease relative to 3 mg/kg ISIS 227446: 43%
[5]; 30 mg/kg every other day for 14 days
  Day 14 serum IGF-I: 126 ng/mL
[5]; 30 mg/kg
  % decrease relative to 3 mg/kg ISIS 227446: 41%
[5]; >10 mg/kg, 14 days
  decrease in serum IGF-I levels compared to 3 mg/kg: 39-43%
